Inhibition of growth and pest or weed control data for 16 molecules are collected here from patent US10757941B2, “Microbiocidal oxadiazole derivatives” (SYNGENTA PARTICIPATIONS AG, priority 2016, dated 2020).

For assay [1], the system named is Glomerella lagenarium (Colletotrichum lagenarium). Description: Fungicidal activity against Glomerella lagenarium (Colletotrichum lagenarium) liquid culture / cucumber / preventative (anthracnose). The format is cell-based. Particulars: Colletotrichum orbiculare; 20 ppm in the applied formulation; liquid culture in PDB, 24° C.; inhibition of growth measured photometrically 3 to 4 days after application; compared to untreated; read-out: disease control. The procedure:
Mycelia fragments or conidia suspensions of a fungus prepared either freshly from liquid cultures of the fungus or from cryogenic storage, are directly mixed into nutrient broth. DMSO solutions of the test compound (max. 10 mg/ml) are diluted with 0.025% Tween20 by a factor of 50 and 10 μl of this solution is pipetted into a microtiter plate (96-well format). The nutrient broth containing the fungal spores/mycelia fragments is then added to give an end concentration of the tested compound. The test plates are incubated in the dark at 24° C. and 96% relative humidity. The inhibition of fungal growth is determined photometrically after 2 to 7 days, depending on the pathosystem, and percent antifungal activity relative to the untreated check is calculated. Example 4: Fungicidal Activity Against Glomerella lagenarium (Colletotrichum lagenarium) Liquid Culture/Cucumber/Preventative (Anthracnose) Conidia of the fungus from cryogenic storage are directly mixed into nutrient broth (PDB—potato dextrose broth). After placing a (DMSO) solution of test compound into a microtiter plate (96-well format), the nutrient broth containing the fungal spores is added. The test plates are incubated at 24° C. and the inhibition of growth is measured photometrically 3 to 4 days after application. The following compounds at 20 ppm in the applied formulation give at least 80% disease control in this test when compared to untreated control under the same conditions, which show extensive disease development.

The subject of assay [2] is Puccinia recondita f. Sp. Tritici. Description: Fungicidal activity against Puccinia recondita f. sp. tritici / wheat / leaf disc preventative (brown rust). As to conditions: foliar, 200 ppm in the applied formulation, wheat leaf segments cv. Kanzler, preventative (inoculated 1 day after application), assessed 7 to 9 days after application, compared to untreated, read-out: disease control. The format is in vivo. Here is the method: Leaf disks or leaf segments of various plant species are cut from plants grown in a greenhouse. The cut leaf disks or segments are placed in multiwell plates (24-well format) onto water agar. The leaf disks are sprayed with a test solution before (preventative) or after (curative) inoculation. Compounds to be tested are prepared as DMSO solutions (max. 10 mg/ml) which are diluted to the appropriate concentration with 0.025% Tween20 just before spraying. The inoculated leaf disks or segments are incubated under defined conditions (temperature, relative humidity, light, etc.) according to the respective test system. A single evaluation of disease level is carried out 3 to 14 days after inoculation, depending on the pathosystem. Percent disease control relative to the untreated check leaf disks or segments is then calculated. Example 1: Fungicidal Activity Against Puccinia recondita f. Sp. Tritici/Wheat/Leaf Disc Preventative (Brown Rust) Wheat leaf segments cv. Kanzler were placed on agar in multiwell plates (24-well format) and sprayed with the formulated test compound diluted in water. The leaf disks were inoculated with a spore suspension of the fungus 1 day after application. The inoculated leaf segments were incubated at 19° C. and 75% relative humidity (rh) under a light regime of 12 hours light/12 hours darkness in a climate cabinet and the activity of a compound was assessed as percent disease control compared to untreated when an appropriate level of disease damage appears in untreated check leaf segments (7 to 9 days after application). The following compounds at 200 ppm in the applied formulation give at least 80% disease control in this test when compared to untreated control leaf disks under the same conditions, which show extensive disease development.

The subject of another assay is Uromyces viciae-fabael. Description: Fungicidal activity against Uromyces viciae-fabae / field bean / leaf disc preventative (faba-bean rust). It is filed as in vivo. Particulars: foliar, 288 h, 100 ppm in the applied formulation, field bean leaf discs, preventative (inoculated two hours after application), assessed 12 days after application, compared to untreated, read-out: disease control. The procedure: Leaf disks or leaf segments of various plant species are cut from plants grown in a greenhouse. The cut leaf disks or segments are placed in multiwell plates (24-well format) onto water agar. The leaf disks are sprayed with a test solution before (preventative) or after (curative) inoculation. Compounds to be tested are prepared as DMSO solutions (max. 10 mg/ml) which are diluted to the appropriate concentration with 0.025% Tween20 just before spraying. The inoculated leaf disks or segments are incubated under defined conditions (temperature, relative humidity, light, etc.) according to the respective test system. A single evaluation of disease level is carried out 3 to 14 days after inoculation, depending on the pathosystem. Percent disease control relative to the untreated check leaf disks or segments is then calculated. Example 5: Fungicidal Activity Against Uromyces viciae-fabael Field Bean/Leaf Disc Preventative (Faba-Bean Rust) Field bean leaf discs are placed on water agar in multiwell plates (96-well format) and 10 μl of the formulated test compound diluted in acetone and a spreader pipetted onto the leaf disc. Two hours after application leaf discs are inoculated by spraying a spore suspension on the lower leaf surface. The leaf discs are incubated in a climate cabinet at 22° C. with 18 hour day and 70% relative humidity. The activity of a compound is assessed as percent disease control compared to untreated when an appropriate level of disease damage appears in untreated check leaf disks (12 days after application). The following compounds at 100 ppm in the applied formulation give at least 80% disease control in this test when compared to untreated control leaf discs under the same conditions, which show extensive disease development.

In another assay the test system is Phakopsora pachyrhizi. Description: Fungicidal activity against Phakopsora pachyrhizi / soybean / leaf disc preventative (Asian soybean rust). It is filed as in vivo. As to conditions: foliar, 200 ppm in the applied formulation, soybean leaf disks, preventative (inoculated one day after application), assessed 12 to 14 days after application, compared to untreated, read-out: disease control. The procedure:
Leaf disks or leaf segments of various plant species are cut from plants grown in a greenhouse. The cut leaf disks or segments are placed in multiwell plates (24-well format) onto water agar. The leaf disks are sprayed with a test solution before (preventative) or after (curative) inoculation. Compounds to be tested are prepared as DMSO solutions (max. 10 mg/ml) which are diluted to the appropriate concentration with 0.025% Tween20 just before spraying. The inoculated leaf disks or segments are incubated under defined conditions (temperature, relative humidity, light, etc.) according to the respective test system. A single evaluation of disease level is carried out 3 to 14 days after inoculation, depending on the pathosystem. Percent disease control relative to the untreated check leaf disks or segments is then calculated. Example 3: Fungicidal Activity Against Phakopsora pachyrhizi/Soybean/Leaf Disc Preventative (Asian Soybean Rust) Soybean leaf disks are placed on water agar in multiwell plates (24-well format) and sprayed with the formulated test compound diluted in water. One day after application leaf discs are inoculated by spraying a spore suspension on the lower leaf surface. After an incubation period in a climate cabinet of 24-36 hours in darkness at 20° C. and 75% rh leaf disc are kept at 20° C. with 12 h light/day and 75% rh. The activity of a compound is assessed as percent disease control compared to untreated when an appropriate level of disease damage appears in untreated check leaf disks (12 to 14 days after application). The following compounds at 200 ppm in the applied formulation give at least 80% disease control in this test when compared to untreated control leaf disks under the same conditions, which show extensive disease development.

On to `O=C(NCCCCc1ccccc1)c1ccc(-c2noc(C(F)(F)F)n2)c(F)c1` [Compound 1.1, 3-fluoro-N-(4-phenylbutyl)-4-[5-(trifluoromethyl)-1,2,4-oxadiazol-3-yl]benzamide], for which the inhibition of growth at 20 ppm in assay [1] is at least 80%. Further, the pest or weed control at 200 ppm in assay [2] was at least 80%. Moreover, the pest or weed control at 100 ppm with Uromyces viciae-fabael was at least 80%.
Turning to `O=C(NC1CCSCC1)c1ccc(-c2noc(C(F)(F)F)n2)c(F)c1` [Compound 1.7, 3-fluoro-N-tetrahydro-thiopyran-4-yl-4-[5-(trifluoromethyl)-1,2,4-oxadiazol-3-yl]benzamide], the pest or weed control at 100 ppm in the assay with Uromyces viciae-fabael was at least 80%.
On to `O=C(Nc1ccnc2ncnn12)c1ccc(-c2noc(C(F)(F)F)n2)c(F)c1` [Compound 1.9, 3-fluoro-N-([1,2,4]triazolo[1,5-a]pyrimidin-7-yl)-4-[5-(trifluoromethyl)-1,2,4-oxadiazol-3-yl]benzamide], for which the inhibition of growth at 20 ppm in assay [1] was at least 80%. In addition, the pest or weed control at 200 ppm in assay [2] is at least 80%. Moreover, the pest or weed control at 100 ppm in the assay with Uromyces viciae-fabael is at least 80%.
On to `CN1CCC2(CC1)CC(NC(=O)c1ccc(-c3noc(C(F)(F)F)n3)c(F)c1)C2` [Compound 1.11, 3-fluoro-N-(7-methyl-7-azaspiro[3.5]nonan-2-yl)-4-[5-(trifluoromethyl)-1,2,4-oxadiazol-3-yl]benzamide], for which, in the assay on Phakopsora pachyrhizi, the pest or weed control at 200 ppm was at least 80%. Moreover, the pest or weed control at 100 ppm in the assay with Uromyces viciae-fabael was at least 80%.
Turning to `CCOc1ccc(CN(C(=O)c2ccc(-c3noc(C(F)(F)F)n3)c(F)c2)C(C)C)cc1OCC` [Compound 1.17, N-[(3,4-diethoxyphenyl)methyl]-3-fluoro-N-isopropyl-4-[5-(trifluoromethyl)-1,2,4-oxadiazol-3-yl]benzamide], the inhibition of growth at 20 ppm in assay [1] is at least 80%. Also, in assay [2], the pest or weed control at 200 ppm is at least 80%. In addition, in the assay with Uromyces viciae-fabael, the pest or weed control at 100 ppm is at least 80%.
Consider `O=C(c1ccc(-c2noc(C(F)(F)F)n2)c(F)c1)N(Cc1ccc2c(c1)OCO2)CC1OCCO1` [Compound 1.18, N-(1,3-benzodioxol-5-ylmethyl)-N-(1,3-dioxolan-2-ylmethyl)-3-fluoro-4-[5-(trifluoromethyl)-1,2,4-oxadiazol-3-yl]benzamide], for which, in assay [1], the inhibition of growth at 20 ppm was at least 80%. Besides, in assay [2], the pest or weed control at 200 ppm is at least 80%. For the same molecule, the pest or weed control at 100 ppm in the assay on Uromyces viciae-fabael was at least 80%.
In the case of `CCOc1ccc(CN(CC2OCCO2)C(=O)c2ccc(-c3noc(C(F)(F)F)n3)c(F)c2)cc1OCC` [Compound 1.19, N-[(3,4-diethoxyphenyl)methyl]-N-(1,3-dioxolan-2-ylmethyl)-3-fluoro-4-[5-(trifluoromethyl)-1,2,4-oxadiazol-3-yl]benzamide], the inhibition of growth at 20 ppm in assay [1] is at least 80%. In addition, in the assay on Uromyces viciae-fabael, the pest or weed control at 100 ppm is at least 80%.
As for `CC1CCCC(C)N1CCNC(=O)c1ccc(-c2noc(C(F)(F)F)n2)c(F)c1` (centres unmarked) [Compound 1.21, N-[2-(2,6-dimethyl-1-piperidyl)ethyl]-3-fluoro-4-[5-(trifluoromethyl)-1,2,4-oxadiazol-3-yl]benzamide], the pest or weed control at 100 ppm in the assay on Uromyces viciae-fabael was at least 80%.
`CCC(C#N)(COc1ccc(C#N)cc1)NC(=O)c1ccc(-c2noc(C(F)(F)F)n2)c(F)c1` (centres unmarked) [Compound 1.24, N-[1-cyano-1-[(4-cyanophenoxy)methyl]propyl]-3-fluoro-4-[5-(trifluoromethyl)-1,2,4-oxadiazol-3-yl]benzamide]: the pest or weed control at 200 ppm in assay [2] was at least 80%.
With `CCOC(=O)C(CC(F)(F)F)NC(=O)c1ccc(-c2noc(C(F)(F)F)n2)c(F)c1` (centres unmarked) [Compound 1.26, ethyl 4,4,4-trifluoro-2-[[3-fluoro-4-[5-(trifluoromethyl)-1,2,4-oxadiazol-3-yl]benzoyl]amino] butanoate], the pest or weed control at 200 ppm in assay [2] is at least 80%. The pest or weed control at 100 ppm in the assay on Uromyces viciae-fabael was at least 80%.
Consider `N#CCCN(CCC#N)C(=O)c1ccc(-c2noc(C(F)(F)F)n2)c(F)c1` [Compound 1.29, N,N-bis(2-cyanoethyl)-3-fluoro-4-[5-(trifluoromethyl)-1,2,4-oxadiazol-3-yl]benzamide], for which, in the assay on Uromyces viciae-fabael, the pest or weed control at 100 ppm is at least 80%.
Regarding `CC(C)C(C)(C#N)NC(=O)c1ccc(-c2noc(C(F)(F)F)n2)c(F)c1` (centres unmarked) [Compound 1.30, N-(1-cyano-1,2-dimethyl-propyl)-3-fluoro-4-[5-(trifluoromethyl)-1,2,4-oxadiazol-3-yl]benzamide], the inhibition of growth at 20 ppm in assay [1] was at least 80%. Further, the pest or weed control at 200 ppm in assay [2] was at least 80%.
For `O=C(NCCCn1ccnc1)c1ccc(-c2noc(C(F)(F)F)n2)c(F)c1` [Compound 1.32, 3-fluoro-N-(3-imidazol-1-ylpropyl)-4-[5-(trifluoromethyl)-1,2,4-oxadiazol-3-yl]benzamide], in the assay with Uromyces viciae-fabael, the pest or weed control at 100 ppm was at least 80%.
Take `O=C(Nc1ccccc1)c1ccc(-c2noc(C(F)(F)F)n2)c(F)c1` [Compound 1.33, 3-fluoro-N-phenyl-4-[5-(trifluoromethyl)-1,2,4-oxadiazol-3-yl]benzamide]: the pest or weed control at 100 ppm in the assay with Uromyces viciae-fabael was at least 80%.
In the case of `O=C(NC1CC1c1ccccc1)c1ccc(-c2noc(C(F)(F)F)n2)c(F)c1` (centres unmarked) [Compound 1.34, 3-fluoro-N-(2-phenylcyclopropyl)-4-[5-(trifluoromethyl)-1,2,4-oxadiazol-3-yl]benzamide], the pest or weed control at 100 ppm in the assay with Uromyces viciae-fabael is at least 80%.
For `CC(C)(C)CC(C)(C)NC(=O)c1ccc(-c2noc(C(F)(F)F)n2)c(F)c1` [Compound 1.37, 3-fluoro-N-(1,1,3,3-tetramethylbutyl)-4-[5-(trifluoromethyl)-1,2,4-oxadiazol-3-yl]benzamide], the inhibition of growth at 20 ppm in assay [1] was at least 80%. Moreover, the pest or weed control at 100 ppm in the assay with Uromyces viciae-fabael was at least 80%.
